The source made the active and inactive calls. No rule for the calls is given here.
Assay: growth inhibition of wild-type Mtb, BioA inhibitor project, biotin-free medium, plate reader, dry powder (AID 743070)
Conditions: M. tuberculosis wild type growth; for IC90: measured here: Mtb growth IC90

Row | Compound | IC50 | IC90
1 | Cc1ccccc1/C=C(\CCC(=O)O)c1nc2ccccc2s1 | 8.3 µM | 44.1 µM
2 | CC(=O)c1ccc(N2CCN(C(=O)c3cccc(F)c3)CC2)cc1 | > 50 µM (inactive) | > 50 µM
3 | CC(=O)c1ccc(N2CCN(C(=O)c3ccc(Cl)cc3)CC2)cc1 | > 50 µM (inactive) | > 50 µM
4 | O=C(Nc1cccnc1)N1CCN(c2ccccc2)CC1 | > 50 µM (inactive) | > 50 µM
5 | CC(=O)c1ccc(N2CCN(C(=O)c3ccccc3)CC2)cc1 | > 50 µM (inactive) | > 50 µM
6 | Cc1ccc(/C=C(\CCC(=O)O)c2nc3ccccc3s2)cc1[N+](=O)[O-] | 1.1 µM | 2.5 µM
7 | COc1ccc(C(=O)N2CCN(c3ccc(C(C)=O)cc3)CC2)cc1 | > 50 µM (inactive) | > 50 µM
8 | CCc1ccc(C(=O)N2CCN(Cc3ccc4c(c3)OCO4)CC2)cc1 | 8.5 µM | > 50 µM
9 | O=C(O)CC/C(=C\c1ccc([N+](=O)[O-])cc1)c1nc2ccccc2s1 | 8.9 µM | 34.4 µM
10 | COc1cc(/C=C/C(=O)Nc2cccnc2)cc(OC)c1OC | 13.7 µM | > 50 µM
11 | CC(=O)c1ccc(N2CCN(C(=O)c3cccnc3)CC2)cc1 | > 50 µM (inactive) | > 50 µM
12 | O=C(c1ccc2c(c1)OCO2)N1CCN(Cc2ccccc2)CC1 | > 50 µM (inactive) | > 50 µM
13 | CC(=O)c1ccc(N2CCN(C(=O)c3ccc(C)cc3)CC2)cc1 | > 50 µM (inactive) | > 50 µM
14 | O=C(Nc1ccc(Cl)c(-c2nc3ccccc3[nH]2)c1)c1cccnc1 | 7.4 µM | 46 µM
15 | O=C(Nc1ccc2snnc2c1)N1CCN(c2ccccc2)CC1 | 3.2 µM | 17.9 µM
16 | O=C(c1ccc2c(c1)OCO2)N1CCN(c2ccccc2)CC1 | 23.2 µM | > 50 µM
17 | Cc1ccc(-c2cc(C(F)(F)F)n3nc(C(=O)Nc4cccnc4)cc3n2)cc1 | > 50 µM (inactive) | > 50 µM
18 | CC(=O)c1ccc(N2CCN(C(=O)c3ccc(F)cc3)CC2)cc1 | 50 µM | > 50 µM
19 | CC(=O)c1ccc(N2CCN(C(=O)c3ccc4c(c3)OCCO4)CC2)cc1 | > 50 µM (inactive) | > 50 µM
20 | COc1ccc(N2CCN(C(=O)c3ccc4c(c3)OCO4)CC2)cc1 | 9.7 µM | > 50 µM

Row | Compound | IC50 | IC90
21 | O=C(Nc1cccnc1)c1cc2nc(-c3cccs3)cc(C(F)(F)F)n2n1 | > 50 µM (inactive) | > 50 µM
22 | CC(=O)c1ccc(N2CCN(C(=O)c3ccc(Br)cc3)CC2)c(F)c1 | 10.3 µM | > 50 µM
23 | O=C(c1ccc2c(c1)OCO2)N1CCN(c2ccc(Cl)cc2)CC1 | 11.2 µM | 49.2 µM
24 | CC(=O)c1ccc(N2CCN(C(=O)c3ccc4c(c3)OCO4)CC2)cc1 | 5 µM | 26.3 µM
25 | O=C(COc1ccc2ccc(=O)oc2c1)N1CCN(c2ccc(F)cc2)CC1 | 50 µM | > 50 µM
26 | Cc1ccc(NC(=O)N2CCN(c3ccccc3)CC2)cc1 | 10.3 µM | > 50 µM
27 | O=C(Nc1ccc(F)cc1)N1CCN(c2ccccc2)CC1 | 14.1 µM | > 50 µM
28 | CC(=O)c1ccc(N2CCN(C(=O)c3ccc4ncsc4c3)CC2)cc1 | 22.2 µM | > 50 µM
29 | O=C(Nc1ccc2snnc2c1)N1CCOCC1 | > 50 µM (inactive) | > 50 µM
30 | COC(=O)c1c(C(=O)OC)c(-c2cccc(F)c2)n2c1CS(=O)C2 (stereo not given) | 15.9 µM | > 50 µM
31 | CC(=O)c1ccc(N2CCN(Cc3ccc4c(c3)OCO4)CC2)cc1 | 31.2 µM | > 50 µM
32 | CC(=O)c1ccc(N2CCN(C(=O)c3cccc(Cl)c3)CC2)cc1 | 7.5 µM | 27.5 µM
33 | CCc1ccc(N2CCN(C(=O)c3ccc4c(c3)OCO4)CC2)cc1 | 9.6 µM | > 50 µM
34 | O=C(Nc1ccc2[nH]ccc2c1)N1CCN(c2ccccc2)CC1 | 7 µM | > 50 µM
35 | Cc1cc(C)n2nc(C(=O)Nc3cccnc3)nc2n1 | > 50 µM (inactive) | > 50 µM
36 | O=C(Nc1ccc2snnc2c1)N1CCCCC1 | 50 µM | > 50 µM
37 | Cc1ccc(/C=C(\CCC(=O)O)c2nc3ccccc3s2)cc1 | 2 µM | 4.8 µM
38 | COc1cccc(NC(=O)CCC2CCN(C(=O)c3ccc(C(C)=O)s3)CC2)c1 | 10.7 µM | > 50 µM
39 | O=C(Nc1cccc(F)c1)N1CCN(c2ccccc2)CC1 | 8.2 µM | > 50 µM
40 | CCN(CC)c1ccc2cc(C(=O)c3cccs3)c(=O)oc2c1 | 3.8 µM | 20.7 µM

Row | Compound | IC50 | IC90
41 | O=C(Nc1ccc(Cl)cc1)c1cc2nc(C3CC3)cc(C(F)(F)F)n2n1 | 50 µM | > 50 µM
42 | CCOC(=O)N1CCN(C(=O)Nc2ccc3snnc3c2)CC1 | 14.6 µM | > 50 µM
43 | O=C(Nc1cccc(Cl)c1)N1CCN(c2ccccc2)CC1 | 5 µM | > 50 µM
44 | O=C(Nc1cccnc1)c1cnn2c(C(F)(F)F)cc(-c3ccccc3)nc12 | > 50 µM (inactive) | > 50 µM
45 | O=C(Nc1ccncc1)c1cc2nc(C3CC3)cc(C(F)F)n2n1 | 50 µM | > 50 µM
46 | O=C(Nc1cccnc1)c1cnn2c(C(F)F)cc(C3CC3)nc12 | > 50 µM (inactive) | > 50 µM
47 | Cc1nc2cc(NC(=O)N3CCN(c4ccccc4)CC3)ccc2o1 | 50 µM | > 50 µM
48 | COc1ccc(NC(=O)N2CCN(c3ccccc3)CC2)cc1 | 50 µM | > 50 µM
49 | Cc1ccc(/C=C(\CCCC(=O)O)c2nc3ccccc3s2)cc1[N+](=O)[O-] | 8.4 µM | > 63.3 µM
50 | Cc1ccc(/C=C(\CC(=O)O)c2nc3ccccc3s2)cc1[N+](=O)[O-] | 6.8 µM | > 50 µM
51 | O=C(O)CC/C(=C\c1ccccc1[N+](=O)[O-])c1nc2ccccc2s1 | 50 µM | > 50 µM
52 | COc1ccc(-c2cc(C(F)(F)F)n3nc(C(=O)Nc4cccnc4)cc3n2)cc1 | 2.7 µM | > 50 µM
53 | O=C(Nc1ccccc1)N1CCN(c2ccccc2)CC1 | 6.9 µM | > 50 µM
54 | Cc1cc(C)n2nc(C(=O)Nc3cccnc3)cc2n1 | 21.8 µM | > 50 µM
55 | Cc1cccc(/C=C(\CCC(=O)O)c2nc3ccccc3s2)c1 | 3.1 µM | 11 µM
56 | COc1cccc(C(=O)N2CCN(c3ccc(C(C)=O)cc3)CC2)c1 | 50 µM | > 50 µM
57 | O=C(c1ccc2c(c1)OCO2)N1CCN(c2ccc(F)cc2)CC1 | 22 µM | > 50 µM
58 | CC(C)(C)c1ccc(C(=O)N2CCN(c3ccc4c(c3)OCO4)CC2)cc1 | 14.9 µM | > 50 µM
59 | Cc1nc2ccc(NC(=O)N3CCN(c4ccccc4)CC3)cc2s1 | 2.1 µM | 6.8 µM
60 | COc1cccc(NC(=O)N2CCN(c3ccccc3)CC2)c1 | 50 µM | > 50 µM

From PubChem BioAssay AID743070 (Broad Institute, 2013)
